Results taken from patent publication US12370236B2, “Method and combination for the suppression of COVID-19 virus” (priority 2021, dated 2025).

How the values were obtained:
[1] = system: SARS-CoV2 hCoV-19/Taiwan/NTU13/2020; test: Plaque reduction assay in Vero E6 cells; type: cell-based
[2] = target: T1, 3CL^pro (Severe acute respiratory syndrome coronavirus 2, UniProt P0DTD1); test: FRET-based 3CL^pro enzyme activity assay; type: biochemical, SARS-CoV2
T1 construct: A 3CL^pro (Cat. #78042-1) assay kit (BPS Bioscience, CA, USA) was used; purchased BPS Bioscience 78042-1
Experimental: FIG. 1 is a scheme of the fluorogenic 3CL^pro protease enzymatic assay. The fluorescence of Edans in the C-terminal of the peptide substrate (Dabcyl-[…]-Edans, the cleavage site is in between the amino acids Q and S) is quenched by the Dabcyl in the N-terminus without the 3CL^pro enzymatic cleavage. After the protease is added and cleaves the peptide substrate, the quencher molecule Dabcyl can no longer quench the fluorophore Edans which results in an increase in fluorescence emission at 460 nm. The intensity of this fluorescence is proportional to the protease activity. FRET: fluorescence resonance energy transfer.
3CL^pro inhibition percentage of different test groups is determined by “(Isubstrate+3CLpro−Itest_group)/(Isubstrate+3CLpro−Isubstrate)×100%, where “I” is the observed intensity of blue fluorescence light (at 460 nm); Isubstrate and Isubstrate+3CLpro are supposed to give the lowest and the highest intensity, respectively, where the substrate is a peptide labeled by a quencher and fluorophore at its N- and C-termini (as shown in FIG. 1). Specifically, the fluorescence of Edans in the C-terminal of the peptide (Dabcyl-[…]-Edans; the cleavage site is in between the amino acids Q and S) is quenched by the Dabcyl in the N-terminus in the absence of the 3CL^pro enzymatic cleavage. Norvancomycin (Nv) is the interface blocker here while the FDA drugs boceprevir (Bc) and GC376 (in its clinical trials) are the active-site inhibitors. The results are shown by the average value of two replicates.
The FRET-based assay was designed for 3CL^pro activity assay and explained in FIG. 1. The 3CL^pro enzyme assay was developed in a 96-well black microplate with a total volume of 50 μL. 30 μL of 0.5 ng/μL enzyme in a reaction buffer was added into each well, followed by the addition of 10 μL substrate solution to a final concentration of 40 μM. Enzymatic reaction gave fluorescence whose intensity was measured after incubation for 4 hours at 37° C. with slow shaking in a microtiter plate reading fluorimeter (BioTek Synergy HTX multi-mode reader, VT, US) with Ex=340 nm/Em=460 nm. […]

[3] = system: Vero E6 cells; test: Cytotoxicity assay; type: cell-based
Experimental: (§1) FIGS. 6A and 6B show the cytotoxicity of norvancomycin (NV) and nelfinavir (NF). The percentage of cell survival is determined by obtaining cell viability of Vero E6 cells in the presence of drugs of interest and trace amount of DMSO that help fully dissolve the drug, normalized by Vero E6 cells in the presence of the same concentration of said DMSO, which serves as a control, the cell viability in the absence of the drugs. 50% cytotoxic concentration (CC50) represents the concentration of NV and NF required to reduce cell survival by 50%.
(§2) Cytotoxicity assay was performed using Vero E6 cells described above to determine the cytotoxicity of tested compounds, i.e., norvancomycin and nelfinavir. DMSO, the solvent used to help fully dissolve the drugs of interest, was used as the negative control. The percentage of cell survival and 50% cytotoxic concentration (CC50) were derived.

[4] = Cytotoxicity assay; type: cell-based; conditions: African green monkey, Vero E6 cells
Experimental: as §1, §2

In the case of CC(C)C[C@@H](N)C(=O)N[C@H]1C(=O)N[C@@H](CC(N)=O)C(=O)N[C@H]2C(=O)N[C@H]3C(=O)N[C@H](C(=O)N[C@H](C(=O)O)c4cc(O)cc(O)c4-c4cc3ccc4O)[C@H](O)c3ccc(c(Cl)c3)Oc3cc2cc(c3O[C@@H]2O[C@H](CO)[C@@H](O)[C@H](O)[C@H]2O[C@H]2C[C@](C)(N)[C@H](O)[C@H](C)O2)Oc2ccc(cc2Cl)[C@H]1O [Norvancomycin], the “suppression of SARS-CoV2 replication” value ([1]; 40 μM norvancomycin) is reported as 4%, the “extra 3CL^pro inhibition vs GC376 alone” value ([2]; 25 μM norvancomycin in combination with 16 nM GC376) is reported as 10% and the “additional 3CL^pro inhibition” value ([2]; 50 μM norvancomycin in combination with 25 μM boceprevir) is reported as 17%. For the same compound, the “elevation of 3CL^pro inhibition” value ([2]; co-used with 25 μM boceprevir at molar ratio 1:1) was “around 10%” and the CC50 [3] was greater than 100 µM.

With Cc1c(O)cccc1C(=O)N[C@@H](CSc1ccccc1)[C@H](O)CN1C[C@H]2CCCC[C@H]2C[C@H]1C(=O)NC(C)(C)C [nelfinavir] the “suppression of SARS-CoV2 replication” value ([1]; 0.9 μM nelfinavir) was 41%, the “suppression of SARS-CoV2 replication” value ([1]; 1.8 μM nelfinavir) was 35% and the “suppression of SARS-CoV2 replication” value ([1]; 1.8 μM nelfinavir together with 37.5 μM norvancomycin) was 100%. For the same compound, the “suppression of SARS-CoV2 replication” value ([1]; 3.6 μM nelfinavir) was 100%, the “suppression of SARS-CoV2 replication” value ([1]; 3.6 μM nelfinavir and 37.5 μM norvancomycin) was 100% and the cell survival rate ([3]; 1.8 μM nelfinavir) was 84%. The cell survival rate ([3]; 3.6 μM nelfinavir) was 69% and the CC50 [4] was 8.26 ± 0.495 µM.
